Experimental data as given in US9938279B2, “Method for treating disease or condition susceptible to amelioration by AMPK activators and compounds of formula which are useful to activate AMP-activated protein kinase (AMPK)” (ENERGENESIS BIOMEDICAL CO., LTD, priority 2013, dated 2018).

Experiments:
AMPK [1] = experiment: AMPK activation assay (western blot phospho-AMPK Thr172) in Hep G2; assay type: cell-based, human; settings: Hep G2 cells, 30 min treatment
Procedure: (§1) Effects of compounds on AMPK activation were analyzed in mouse muscle cell C2C12, mouse fibroblast 3T3-L1 and human hepatocyte Hep G2. Those cell lines were cultured in high-glucose Dulbecco's modified Eagle's medium (DMEM) containing 10% fetal bovine serum (FBS), 4 mM L-glutamine, 2 mM sodium pyruvate and 1% penicillin/streptomycin (Invitrogen GibcoBRL, Carlsbad, Calif., USA) at 37° C. under 5% CO2. Cells were plated at 3×10^5 per well (6-well plate). 24 h after plating, cells were treated with indicated compounds for 30 min followed by cell lysis and western blot analysis. Equal amount of protein were separated by SDS-PAGE and then electroblotted on to PVDF membranes. Membranes were blocked with 3% BSA in PBS for 60 min and incubated with anti-phospho-AMPK (Thr172) antibody (1:2,000, Cell signaling), anti-AMPK antibody (1:2,000, Cell signaling), anti-Glut4 antibody (1:1,000, Millipore) or anti-actin antibody (1:5,000; Chemicon International) at 4° C. overnight followed by the corresponding secondary antibody for 1 h at room temperature (RT). Immunoreactive bands were detected by enhanced chemiluminescence (ECL; Pierce, Rockford, Ill., USA) and recorded using Kodakfilm (Rochester, N.Y., USA). The detected signals were scanned and then quantified by using TotalLab Quant software (TotalLab).

AMPK [2] = experiment: AMPK activation assay (western blot phospho-AMPK Thr172) in 3T3-L1; assay type: cell-based, mouse; settings: 3T3-L1 cells, 30 min treatment
Procedure: as §1

AMPK [3] = experiment: AMPK activation assay (western blot phospho-AMPK Thr172) in C2C12; assay type: cell-based, mouse; settings: C2C12 cells, 30 min treatment
Procedure: as §1

Row | SMILES | AMPK activation (% to control) Hep G2 (AMPK [1]; 1 microM) | AMPK activation (% to control) Hep G2 (AMPK [1]; 10 microM) | AMPK activation (% to control) Hep G2 (AMPK [1]; 100 microM) | AMPK activation (% to control) Hep G2 (AMPK [1]; 200 microM) | AMPK activation (% to control) 3T3-L1 (AMPK [2]; 1 microM) | AMPK activation (% to control) 3T3-L1 (AMPK [2]; 10 microM) | AMPK activation (% to control) 3T3-L1 (AMPK [2]; 100 microM) | AMPK activation (% to control) 3T3-L1 (AMPK [2]; 200 microM) | AMPK activation (% to control) C2C12 (AMPK [3]; 1 microM) | AMPK activation (% to control) C2C12 (AMPK [3]; 10 microM) | AMPK activation (% to control) C2C12 (AMPK [3]; 100 microM) | AMPK activation (% to control) C2C12 (AMPK [3]; 200 microM)
1 | Nc1nc(N)c2[nH]cnc2n1 [2,6-diaminopurine] | 113 % to control | 155 % to control | 274 % to control | 397 % to control | 108 % to control | 149 % to control | 288 % to control | 335 % to control | 116 % to control | 181 % to control | 281 % to control | 381 % to control
2 | Oc1nc(O)c2[nH]cnc2n1 [2,6-dihydroxypurine] | 114 % to control | 139 % to control | 198 % to control | 302 % to control | 109 % to control | 132 % to control | 205 % to control | 361 % to control | 105 % to control | 115 % to control | 231 % to control | 347 % to control
3 | Sc1nc(S)c2[nH]cnc2n1 [2,6-dimercaptopurine] | 110 % to control | 133 % to control | 244 % to control | 366 % to control | 102 % to control | 98 % to control | 178 % to control | 260 % to control | 104 % to control | 117 % to control | 215 % to control | 298 % to control
4 | COc1cccc(CNc2nc(N)nc3nc[nH]c23)c1OC [2-amino-6-(2,3-dimethoxybenzylamino)purine] | 115 % to control | 127 % to control | 229 % to control | 318 % to control | 118 % to control | 156 % to control | 250 % to control | 347 % to control | 106 % to control | 144 % to control | 263 % to control | 334 % to control
5 | COc1cc(CNc2nc(C)nc3nc[nH]c23)cc(OC)c1OC [2-methyl-6-(3,4,5-trimethoxybenzylamino)purine] | 112 % to control | 168 % to control | 270 % to control | 359 % to control | 115 % to control | 141 % to control | 254 % to control | 346 % to control | 106 % to control | 117 % to control | 211 % to control | 361 % to control
6 | O=C1CCNC(=O)N1 [5,6-dihydrouracil] | 120 % to control | 167 % to control | 274 % to control | 360 % to control | 116 % to control | 159 % to control | 268 % to control | 341 % to control | 108 % to control | 114 % to control | 207 % to control | 326 % to control
7 | Clc1cccc(Nc2ncnc3nc[nH]c23)c1 [6-(3-chloroanilino)purine] | 106 % to control | 109 % to control | 212 % to control | 319 % to control | 116 % to control | 130 % to control | 217 % to control | 301 % to control | 108 % to control | 118 % to control | 186 % to control | 307 % to control
8 | Nc1cc[nH]c(=O)n1 [Cytosine] | 117 % to control | 164 % to control | 281 % to control | 359 % to control | 117 % to control | 127 % to control |  | 310 % to control | 119 % to control | 158 % to control | 253 % to control | 361 % to control
9 | CN(C)c1nc(O)c2[nH]cnc2n1 [Example 2-Dimethylamino-6-hydroxypurine, 2-Dimethylamino-6-hydroxypurine] | 117 % to control | 132 % to control | 185 % to control | 218 % to control | 106 % to control | 108 % to control | 205 % to control | 264 % to control | 105 % to control | 111 % to control | 229 % to control | 298 % to control
10 | CC(C)CCNc1nc(N)nc2nc[nH]c12 [Example 2-amino-6-isopentylaminopurine, 2-amino-6-isopentylaminopurine] | 117 % to control | 174 % to control | 250 % to control | 341 % to control | 110 % to control | 169 % to control | 271 % to control | 361 % to control | 104 % to control | 114 % to control | 238 % to control | 305 % to control
11 | Nc1nc(S)c2[nH]cnc2n1 [Example 2-amino-6-mercaptopurine, 2-amino-6-mercaptopurine] | 112 % to control | 124 % to control | 209 % to control | 261 % to control | 105 % to control | 119 % to control | 251 % to control | 277 % to control | 118 % to control | 122 % to control | 228 % to control | 284 % to control
12 | CNc1nc(N)nc2nc[nH]c12 [Example 2-amino-6-methylaminopurine, 2-amino-6-methylaminopurine] | 114 % to control | 139 % to control | 230 % to control | 348 % to control | 109 % to control | 135 % to control | 220 % to control | 332 % to control | 119 % to control | 187 % to control | 215 % to control | 351 % to control
